Laboratory results published in PubChem BioAssay (NCI).
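The compound was tested at five concentrations on cells cultured in 96-well plates, with a 48-hour exposure period. Here, GI50 denotes the concentration required for 50% inhibition of growth. TGI marks complete inhibition of growth.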

Columns and labels:
Assay in all cases: NCI anticancer screen, dose series, 48 h
NCI-H23 lung = system: NCI-H23 lung
NCI-H460 lung = system: NCI-H460 lung
T-47D breast = system: T-47D breast
LOX IMVI melanoma = system: LOX IMVI melanoma
HCC-2998 colon = system: HCC-2998 colon
HT29 colon = system: HT29 colon
KM12 colon = system: KM12 colon
CCRF-CEM leukemia = system: CCRF-CEM leukemia
OVCAR-3 ovarian = system: OVCAR-3 ovarian
SNB-19 CNS = system: SNB-19 CNS
U251 CNS = system: U251 CNS
DU-145 prostate = system: DU-145 prostate
SK-MEL-5 melanoma = system: SK-MEL-5 melanoma
RPMI-8226 leukemia = system: RPMI-8226 leukemia
UO-31 renal = system: UO-31 renal
SF-268 CNS = system: SF-268 CNS
HCT-15 colon = system: HCT-15 colon
SF-539 CNS = system: SF-539 CNS
M14 melanoma = system: M14 melanoma
NCI-H226 lung = system: NCI-H226 lung
UACC-62 melanoma = system: UACC-62 melanoma
SN12C renal = system: SN12C renal
SK-OV-3 ovarian = system: SK-OV-3 ovarian
ACHN renal = system: ACHN renal
MDA-MB-435 = system: MDA-MB-435
MCF7 breast = system: MCF7 breast
OVCAR-8 ovarian = system: OVCAR-8 ovarian
MDA-MB-231 breast = system: MDA-MB-231 breast
HL-60(TB) leukemia = system: HL-60(TB) leukemia
IGROV1 ovarian = system: IGROV1 ovarian
A498 renal = system: A498 renal
HCT-116 colon = system: HCT-116 colon
OVCAR-5 ovarian = system: OVCAR-5 ovarian
BT-549 breast = system: BT-549 breast
HOP-92 NSCLC = system: HOP-92 NSCLC
COLO 205 colon = system: COLO 205 colon
SNB-75 CNS = system: SNB-75 CNS
HS 578T breast = system: HS 578T breast
CAKI-1 renal = system: CAKI-1 renal
K-562 leukemia = system: K-562 leukemia
HOP-62 NSCLC = system: HOP-62 NSCLC
EKVX NSCLC = system: EKVX NSCLC
A549 NSCLC = system: A549 NSCLC
TK-10 renal = system: TK-10 renal
UACC-257 melanoma = system: UACC-257 melanoma
SK-MEL-2 melanoma = system: SK-MEL-2 melanoma
MOLT-4 leukemia = system: MOLT-4 leukemia
OVCAR-4 ovarian = system: OVCAR-4 ovarian
SW-620 colon = system: SW-620 colon
PC-3 prostate = system: PC-3 prostate
RXF 393 renal = system: RXF 393 renal
MALME-3M melanoma = system: MALME-3M melanoma
NCI-H522 lung = system: NCI-H522 lung
SK-MEL-28 melanoma = system: SK-MEL-28 melanoma
SF-295 CNS = system: SF-295 CNS

## NCCOc1ncccc1/C=C1\C2C=CC=CC2C2C=CC(F)=CC12 (stereo not given)
NCI-H23 lung
  GI50: 666 nM
  TGI: 3010 nM
NCI-H460 lung
  GI50: 283 nM
  TGI: 1460 nM
T-47D breast
  GI50: 2070 nM
  TGI: 6150 nM
LOX IMVI melanoma
  GI50: 583 nM
  TGI: 1960 nM
HCC-2998 colon
  GI50: 1250 nM
  TGI: 2570 nM
HT29 colon
  GI50: 1450 nM
  TGI: 3290 nM
KM12 colon
  GI50: 1470 nM
  TGI: 2970 nM
CCRF-CEM leukemia
  GI50: 260 nM
  TGI: 5080 nM
OVCAR-3 ovarian
  GI50: 1450 nM
  TGI: 2770 nM
SNB-19 CNS
  GI50: 816 nM
  TGI: 14100 nM
U251 CNS
  GI50: 622 nM
  TGI: 2060 nM
DU-145 prostate
  GI50: 531 nM
  TGI: 1990 nM
SK-MEL-5 melanoma
  GI50: 1470 nM
  TGI: 2790 nM
RPMI-8226 leukemia
  GI50: 1580 nM
  TGI: 3850 nM
UO-31 renal
  GI50: 1310 nM
  TGI: 3060 nM
SF-268 CNS
  GI50: 1410 nM
  TGI: 11000 nM
HCT-15 colon
  GI50: 757 nM
  TGI: 2280 nM
SF-539 CNS
  GI50: 1310 nM
  TGI: 2610 nM
M14 melanoma
  GI50: 1350 nM
  TGI: 3050 nM
NCI-H226 lung
  GI50: 1020 nM
  TGI: 2470 nM
UACC-62 melanoma
  GI50: 1360 nM
  TGI: 2880 nM
SN12C renal
  GI50: 333 nM
  TGI: 1350 nM
SK-OV-3 ovarian
  GI50: 735 nM
  TGI: 2330 nM
ACHN renal
  GI50: 347 nM
  TGI: 1400 nM
MDA-MB-435
  GI50: 1810 nM
  TGI: 3350 nM
MCF7 breast
  GI50: 394 nM
  TGI: 1730 nM
OVCAR-8 ovarian
  GI50: 1190 nM
  TGI: 3480 nM
MDA-MB-231 breast
  GI50: 1640 nM
  TGI: 3260 nM
HL-60(TB) leukemia
  GI50: 334 nM
  TGI: 1420 nM
IGROV1 ovarian
  GI50: 1160 nM
  TGI: 2470 nM
A498 renal
  GI50: 1530 nM
  TGI: 3490 nM
HCT-116 colon
  GI50: 1130 nM
  TGI: 2600 nM
OVCAR-5 ovarian
  GI50: 1690 nM
  TGI: 3400 nM
BT-549 breast
  GI50: 2640 nM
  TGI: 10800 nM
HOP-92 NSCLC
  GI50: 258 nM
  TGI: 2190 nM
COLO 205 colon
  GI50: 1110 nM
  TGI: 2630 nM
SNB-75 CNS
  GI50: 1500 nM
  TGI: 5670 nM
HS 578T breast
  GI50: 2550 nM
  TGI: 13100 nM
CAKI-1 renal
  GI50: 429 nM
  TGI: 1870 nM
K-562 leukemia
  GI50: 1010 nM
  TGI: 3130 nM
HOP-62 NSCLC
  GI50: 1060 nM
  TGI: 2680 nM
EKVX NSCLC
  GI50: 1200 nM
  TGI: 3050 nM
A549 NSCLC
  GI50: 268 nM
  TGI: 2040 nM
TK-10 renal
  GI50: 1960 nM
  TGI: 4310 nM
UACC-257 melanoma
  GI50: 1760 nM
  TGI: 3860 nM
SK-MEL-2 melanoma
  GI50: 2030 nM
  TGI: 4360 nM
MOLT-4 leukemia
  GI50: 232 nM
  TGI: 1100 nM
OVCAR-4 ovarian
  GI50: 2700 nM
  TGI: 10100 nM
SW-620 colon
  GI50: 1070 nM
  TGI: 2660 nM
PC-3 prostate
  GI50: 1150 nM
  TGI: 2450 nM
RXF 393 renal
  GI50: 1570 nM
  TGI: 3170 nM
MALME-3M melanoma
  GI50: 1420 nM
  TGI: 3170 nM
NCI-H522 lung
  GI50: 1690 nM
  TGI: 4090 nM
SK-MEL-28 melanoma
  GI50: 1510 nM
  TGI: 2900 nM
SF-295 CNS
  GI50: 467 nM
  TGI: 1810 nM
